Measured values published in patent publication US20230150951A1, “2,5- OR 2,6-DISUBSTITUTED HYDROQUINONE DERIVATIVES WITH AT LEAST ONE CARBOXY, SULFO OR AMIDO GROUP USEFUL AS MEDICAMENTS” (OM PHARMA SA, priority 2020, published 2023).
≈ marks a conversion by molar mass, not a printed value.

What was measured:
COX2 (cycloxygenase-2) = target: T1, COX2 (cycloxygenase-2) (Homo sapiens, UniProt P35354); assay: Cyclooxygenase enzyme inhibition; type: biochemical
T1 sequence (P35354 18-604): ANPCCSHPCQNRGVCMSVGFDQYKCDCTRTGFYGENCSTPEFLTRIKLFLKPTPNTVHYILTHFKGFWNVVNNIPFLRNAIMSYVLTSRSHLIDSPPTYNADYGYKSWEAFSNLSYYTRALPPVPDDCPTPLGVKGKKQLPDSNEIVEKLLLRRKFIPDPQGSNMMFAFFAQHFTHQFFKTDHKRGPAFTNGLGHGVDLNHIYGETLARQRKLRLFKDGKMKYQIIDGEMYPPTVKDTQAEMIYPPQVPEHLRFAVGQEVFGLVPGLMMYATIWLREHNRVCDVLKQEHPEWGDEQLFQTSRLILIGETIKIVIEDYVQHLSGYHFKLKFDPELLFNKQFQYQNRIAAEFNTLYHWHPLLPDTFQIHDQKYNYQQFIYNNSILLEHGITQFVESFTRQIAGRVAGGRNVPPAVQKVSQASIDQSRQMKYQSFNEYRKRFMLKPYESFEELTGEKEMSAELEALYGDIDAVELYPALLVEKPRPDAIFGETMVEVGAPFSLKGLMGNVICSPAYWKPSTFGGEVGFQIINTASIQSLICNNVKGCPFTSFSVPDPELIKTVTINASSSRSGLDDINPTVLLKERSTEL

Renca tumor cells = assay: Subcutaneous kidney cancer syngenic model (Renca); type: in vivo, BALB/c mice; set-up: concentration or dose not given beside the values
Excerpt: (§1) The objective of this study was to evaluate preclinically the in vivo therapeutic efficacy study of compounds according to the present invention for the treatment of subcutaneously murine pancreatic cancer syngenic model (Pan02) in female C57BL/6 mice and kidney cancer syngenic model (Renca) in female BALB/c mice.
The cells in exponential growth phase were harvested and quantitated by cell counter before tumor inoculation.
Tumor Inoculation for Renca model: each mouse was inoculated subcutaneously in the right rear flank region with Renca tumor cells (1×10^6) in 0.1 mL of PBS for tumor development.
(§2) Randomization: The randomization was started when the mean tumor size reaches approximately 100 (80-110) mm^3. For both models, 48 mice were enrolled in the study. All animals were randomly allocated to 6 study groups. Randomization were performed based on “Matched distribution” method using the multi-task method (StudyDirector™ software, version 3.1.399.19). The date of randomization was denoted as day 0.
(§3) Observation and Data Collection: After tumor cells inoculation, the animals were checked daily for morbidity and mortality. During routine monitoring, the animals were checked for any effects of tumor growth and treatments on behavior such as mobility, food and water consumption, body weight gain/loss (body weights were measured twice per week after randomization), eye/hair matting and any other abnormalities. Mortality and observed clinical signs were recorded for individual animals in detail.
(§4) Tumor volumes were measured twice per week after randomization in two dimensions using a caliper, and the volume were expressed in mm3 using the formula: “V=(L×W×W)/2, where V is tumor volume, L is tumor length (the longest tumor dimension) and W is tumor width (the longest tumor dimension perpendicular to L). Tumor weight were measured at the end of study. Dosing as well as tumor and body weight measurements were conducted in a Laminar Flow Cabinet.
(§5) Statistical Analysis: To compare tumor volumes of different groups at a pre-specified day, Bartlett's test was firstly used to check the assumption of homogeneity of variance across all groups. When the p-value of Bartlett's test is >0.05, One-way ANOVA were used to test overall equality of means across all groups.
(§6) If the p-value of the One-way ANOVA is <0.05, post hoc testing by running Tukey's HSD (honest significant difference) tests for all pairwise comparisons, and Dunnett's tests for comparing each treatment group with the vehicle group were performed. When the p-value of Bartlett's test is <0.05, Kruskal-Wallis test were used to test overall equality of medians among all groups. If the p-value the Kruskal-Wallis test is <0.05, post hoc testing by running Conover's non-parametric test for all pairwise comparisons or for comparing each treatment group with the vehicle group were performed, both with single-step p-value adjustment. All statistical analyses were done in R-a language and environment for statistical computing and graphics (version 3.3.1). All tests are two-sided unless otherwise specified, and p-values of <0.05 are regarded as statistically significant.

[1] = tested on: DBA/2 mouse strain with STZ induction of diabetes; assay: STZ-induced diabetic retinopathy and nephropathy model in DBA/2 mice; type: in vivo; conditions: one and two weeks, FIG. 9
Procedure: Therapeutic efficacy of the compounds according to the present invention was assessed using diabetic mouse model using the DBA/2 mouse strain with STZ induction of diabetes and follow diabetic retinopathy including kidney damage. Five weeks after induction of diabetes via low dose STZ injection for 5 consecutive days, the urinary albumin:Cr ratio is […] compared to 36.9 for age-matched controls.
For treatment of diabetic nephropathy, DBA/2 mice were induced with STZ (low dose for 5 consecutive days).
Treatment was performed for four weeks (IV dosing) with weekly assessment of blood glucose and urine albumin/creatinine levels. At the end of the treatment period animals, the following samples were taken: • Blood for measurement of glucose and Blood Urea Nitrogen (BUN) • Blood for measurement of serum creatinine • Urine for final albumin/creatinine ratio. • Kidney was resected and FFPE: Picro-Sirius Red, Masson's Trichrome and H&E staining was carried out to identify areas of fibrosis, along with evidence of Mesangial sclerosis, Arteriolar hyalinosis, Glomerular Basal Membrane (GBM) thickening
To assess compound effect on diabetic retinopathy, animals had weekly images taken via Fundus Camera. Immediately prior to sacrifice, animals were injected with FITC-dextran via tail vein. During sampling, the eyes were sampled and fixed in formalin. Retinal Flatmounts were prepared and examined fluorescently looking at compound effects on vascularity and leakiness of vessels (indicted by high background staining).

Pan02 tumor cells = assay: Subcutaneous murine pancreatic cancer syngenic model (Pan02); type: in vivo, C57BL/6 mice; set-up: Mean % inhibition of tumor volume Pan02 model: concentration or dose not given beside the values
Procedure: as §1
Cell Culture: the Pan02 tumor cells were maintained in vitro with RPMI 1640 medium supplemented with 10% fetal bovine serum at 37° C. in an atmosphere of 5% CO2 in air. The cells in exponential growth phase were harvested and quantitated by cell counter before tumor inoculation.
Tumor Inoculation for Pan02 model: each mouse was inoculated subcutaneously in the right front flank region with Pan02 tumor cells (3×10^6) in 0.1 mL of PBS for tumor development.
as §2, §3, §4, §5, §6

physchem = conditions: water
[2] = day 13, 15 mg/kg, 5 μL/g, I.V., QD*5 for 2 weeks

With `O=C(O)c1cc(NC(=O)c2cc(O)c(C(=O)Nc3ccc(O)c(C(=O)O)c3)cc2O)ccc1O` [Ic-007a, 5-(4-(3-carboxy-4-hydroxyphenylaminocarbonyl)-2,5-dihydroxybenzamido)-2-hydroxy benzoic acid] the “Inhibition of COX2” value (COX2 (cycloxygenase-2)) was “partially inhibition”.

With `O=C(O)c1cc(O)cc(CS(=O)(=O)Cc2cc(O)cc(C(=O)O)c2O)c1O` [IVc-059a, 3-((2,5-Dihydroxy-3-carboxyphenyl)methylsulfonylmethyl)-2,5-dihydroxybenzoic acid] the “Mean % inhibition of tumor volume Renca model” value (Renca tumor cells; Day 0) was 0.05%, the “Mean % inhibition of tumor volume Renca model” value (Renca tumor cells; Day 3) was −0.90% and the “Mean % inhibition of tumor volume Renca model” value (Renca tumor cells; Day 6) was 5.02%. For the same compound, the “Mean % inhibition of tumor volume Renca model” value (Renca tumor cells; Day 9) was 14.83%, the “Mean % inhibition of tumor volume Renca model” value (Renca tumor cells; Day 13) was 23.07% and the “Mean % inhibition of tumor volume Renca model” value (Renca tumor cells; Day 16) was 19.42%. For the same compound, the Blood glucose level [1] was “significantly reduced”, the “Inhibition of COX2” value (COX2 (cycloxygenase-2)) was “partially inhibition” and the “Tumor growth (in words)” value (Pan02 tumor cells; 15 mg/kg I.V.) was “significantly suppressed tumor growth”. The TGI value (Pan02 tumor cells; 15 mg/kg I.V., P<0.05) was 20.98%, the “Mean % inhibition of tumor volume Pan02 model” value (Pan02 tumor cells; Day 0) was −0.11% and the “Mean % inhibition of tumor volume Pan02 model” value (Pan02 tumor cells; Day 3) was 19.86%. The “Mean % inhibition of tumor volume Pan02 model” value (Pan02 tumor cells; Day 6) was 18.64%, the “Mean % inhibition of tumor volume Pan02 model” value (Pan02 tumor cells; Day 9) was 18.49% and the “Mean % inhibition of tumor volume Pan02 model” value (Pan02 tumor cells; Day 13) was 20.98%. The “TGI (%)” value (Pan02 tumor cells; [2]) was 20.98% and the “Tumor volume ± SEM (mm^3)” value (Pan02 tumor cells; [2]) was 148.49 ± 7.05 (8) mm^3.

For `O=C(O)c1cc(O)c(CN(Cc2cc(O)c(C(=O)O)cc2O)Cc2cc(O)c(C(=O)O)cc2O)cc1O` [IIIc-061a, Tris(4-carboxy-2,5-dihydroxyphenylmethyl)amine], the Blood glucose level [1] was “significantly reduced” and the “Inhibition of COX2” value (COX2 (cycloxygenase-2)) was “partially inhibition”.

For `O=C(O)c1cc(NC(=O)c2cc(O)cc(C(=O)Nc3ccc(O)c(C(=O)O)c3)c2O)ccc1O` [IIc-007a, 5-(3-(3-carboxy-4-hydroxyphenylaminocarbonyl)-2,5-dihydroxybenzamido)-2-hydroxy benzoic acid], the solubility (physchem) was 1800 µg/mL (≈ 3.84 mM) and the “Inhibition of COX2” value (COX2 (cycloxygenase-2)) was “partially inhibition”.

In the case of `O=C(O)c1cc(O)c(C(=O)Nc2ccccc2C(=O)O)cc1O` [Ia-001a, 4-(2-carboxyphenylaminocarbonyl)-2,5-dihydroxybenzoic acid], the Blood glucose level [1] is reported as “significantly reduced”.
